Reference: publication PMC6958329, “New ^55Co-labeled Albumin-Binding Folate Derivatives as Potential PET Agents for Folate Receptor Imaging” (Pharmaceuticals, 2019)
Several values for one entry are separate records, joined by “and”; a condition that tells them apart may be missing. Equal values may be shown once.

What was measured:
[1] = In vitro stability in PBS (radio-TLC); format: physicochemical; conditions: 37 °C, normalized to 0 h, n = 3
Experimental: (§1) Stability of the ^55Co-labeled folates was monitored over a period of 24 h in phosphate buffered saline (PBS) and mouse serum, to monitor the stability of a dose prior to injection (for potential shipment to a PET center) and match the longest biodistribution time point, respectively. The percentage of the intact complex was monitored at 1 h, 4 h, and 24 h via radio-TLC (PBS) or HPLC (mouse serum). […] In PBS, both radioconjugates retained 93% or greater stability at 24 h. […] As a control, one group of replicate serum tubes contained only [^55Co]CoCl2. […] Therefore, the peak corresponding to free [^55Co]CoCl2 (tR = 2.2 min) was used to determine the overall serum stability of the ^55Co-labeled chelates, which was approximately 95% for each compound at 24 h.
(§2) The ^55Co-labeled folate derivatives were diluted 10-fold in 10 mM PBS (pH = 7.4) or whole mouse serum (EMD Millipore, Burlington, MA) in 1.5 mL centrifuge tubes to final volumes of 100 μL. The tubes were incubated at 37 °C with vortexing at 900 rpm using an Eppendorf ThermoMixer C (Eppendorf, Hamburg, Germany) equipped with a 1.5 mL heating block. In the case of PBS stability, three replicate tubes were prepared with average final activity concentrations of 37 kBq (1 μCi) [^55Co]Co-cm10/μL or 37 kBq (1 μCi) [^55Co]Co-rf42/μL, and the final concentrations of precursor were 0.07 mM of cm10 or rf42. The percent of the intact complex was determined by analyzing 1 μL aliquots of each solution by radio-TLC at 1 h, 4 h and 24 h. For mouse serum stability, three replicate tubes were prepared for each time point for each complex. The final average activity concentrations were 11.1 kBq (0.3 μCi) [^55Co]Co-cm10/μL and 7.4 kBq (0.2 μCi) [^55Co]Co-rf42/μL and 0.02 mM final folate concentration. A control sample was prepared for each time point that contained an average of 10.4 kBq/μL of [^55Co]CoCl2. At each time point, 300 μL of ACN was added to each tube to precipitate serum proteins. The tubes were centrifuged at 4500 rpm for 5 min using a benchtop microcentrifuge (Eppendorf, Hamburg, Germany) and the supernatants collected. The pellets were washed once more, and the supernatants were collected and combined with the first ACN wash. The activities in the pellets and supernatants were determined using a 2480 Wizard2 Automatic Gamma Counter (Perkin Elmer, Waltham, MA, USA) to determine the amount of activity associated with the protein pellet. To determine the percentage of intact complex, the supernatant was diluted 2-fold with water, and 100 μL of this mixture was injected into the HPLC.

[2] = In vitro stability in mouse serum (HPLC); format: in vitro ADME; conditions: 37 °C, normalized to 0 h, n = 3
Experimental: as §1, §2

FR-expressing KB cells = assay: Cell binding and internalization in KB cells; format: cell-based, human; conditions: for uptake blocked by co-incubation with folic acid: 0.7 mM folic acid
Experimental: Cellular assays were performed using the human cervical cancer KB cell line, which was cultured in folate-deficient cell media prior to use. The ^55Co-labeled folates were incubated with FR-expressing KB cells to determine total uptake (i.e., all cell-associated activity, both surface-bound and internalized) and the internalized fraction. To determine whether uptake was receptor-mediated, some cells were co-incubated with folic acid, which binds to FRs with high affinity to act as a blocking agent. […] The uptake profiles for both of the tested radiofolates were similar to each other and more similar to the previously reported [^68Ga]Ga-rf42 complex, in contrast to [^64Cu]Cu-rf42 [14]. In the case of [^55Co]Co-cm10, 26% of the total uptake was internalized with 95% of the uptake blocked by co-incubation of the cells with 0.7 mM of folic acid (Figure 3).
The human cervical cancer cell line KB (CCL-17) was purchased from ATCC (Manassas, VA, USA) and cells were cultured in Gibco folate-deficient RPMI 1640 growth medium (FFRPMI, Thermo Scientific, Waltham, MA, USA) supplemented with 10% fetal bovine serum, and Gibco 1% Antibiotic-Antimycotic. Cells were cultured following standard procedures and were incubated at 37 °C in a 5% CO2 environment and harvested using Gibco 0.25% trypsin-EDTA.
Cell internalization was performed similarly to a previously published procedure. KB cells were harvested, washed with supplemented FFRPMI, and resuspended in supplemented FFRPMI at a final concentration of 1 × 10^5 cells/mL for seeding. In […], 1 mL of the cell mixture was added to each well, and the plates were incubated overnight to allow for adhesion and growth. The following morning, the radiofolates were prepared at molar activities of 331.7 MBq/μmol (9.0 mCi/µmol) [^55Co]Co-cm10 and 299.5 MBq/μmol (8.1 mCi/μmol) in 50 μL final volume and then diluted in supplement free FFRPMI (either with or without 1 mM folic acid) to a final volume of 1 mL/well. The plates were collected, the supernatants discarded, and 1 mL of the dilute radiofolates in media was added to each well (n = 4 for each condition). […] The stripping buffer and lysed cell fractions were collected separately and counted using an automatic gamma counter.
The lysed cell fractions in NaOH were saved, and the total protein concentration for each sample was determined using a Pierce Micro BCA Protein Assay kit (Thermo Scientific, Waltham, MA, USA). The samples were vortexed vigorously prior to assaying, and were analyzed without further dilution. The results were used to normalize the measured radioactivity to the average protein content in each well.

[3] = parameters: method as in PMID 18246556, doi:10.1016/S0277-5387(99)00369-1, doi:10.1351/pac200577081445; conditions: remaining carboxylic acid O of DOTA in the Co(II) complex; cited from earlier work

percent intact complex, PBS ([1]; 1 h) [%] | percent intact complex, PBS ([1]; 4 h) [%] | percent intact complex, PBS ([1]; 24 h) | percent intact complex, mouse serum ([2]; 1 h) [%] | percent intact complex, mouse serum ([2]; 4 h) [%] | percent intact complex, mouse serum ([2]; 24 h) | Compound | fraction of total uptake internalized (FR-expressing KB cells) [%] | uptake blocked by co-incubation with folic acid (FR-expressing KB cells) [%] | pKa [3]
97 ± 2 | 95 ± 1 | 93% and 93.4 ± 0.3% | 98 ± 1 | 97.8 ± 0.6 | 94% and 95 ± 1% | Nc1nc2ncc(CNc3ccc(C(=O)N[C@@H](CCC(=O)NC(CCCCNC(=O)CN4CCN(CC(=O)O)CCN(CC(=O)O)CCN(CC(=O)O)CC4)C(=O)NC(CCCCNC(=O)CCCc4ccc(I)cc4)C(=O)O)C(=O)O)cc3)nc2c(=O)[nH]1.[55Co] (some centres unmarked) [[^55Co]Co-cm10] | 26 | 95 | 4.04
98 ± 2 | 95.6 ± 0.9 | 93% and 93 ± 3% | 97.5 ± 0.5 | 97.2 ± 0.4 | 94% and 94.6 ± 0.6% | Nc1nc2ncc(CNc3ccc(C(=O)N[C@@H](CCC(=O)NC(CCCCNC(=O)CCC(C(=O)O)N4CCN(CC(=O)O)CCN(CC(=O)O)CC4)C(=O)NC(CCCCNC(=O)CCCc4ccc(I)cc4)C(=O)O)C(=O)O)cc3)nc2c(=O)[nH]1.[55Co] (some centres unmarked) [[^55Co]Co-rf42] | 24 | 97 | 
